Literature values as cited in patent US3968207A, “Method of controlling fleas and ticks on cats and dogs” (priority 1975, dated 1976).

Test system: lice
Settings: single spray treatment; cited from earlier work

CCOP(=S)(OCC)Oc1nc(Cl)c(Cl)cc1Cl [Dursban, O,O-diethyl O-(3,5,6-trichloro-2-pyridyl)phosphorothioate]
control of lice on cattle: effective control
